# In patent US10822336B2, “Crystals of [2-(1-methyl-1H-pyrazol-4-yl)-6(morpholin-4-yl)-9H-purin-8-yl][4-(morpholin-4-yl)piperidin-1-yl]methanone and pharmaceutically acceptable salt thereof” (Daiichi Sankyo Company, Limited, priority 2016, dated 2020):
# What was measured:
# [1] = target: T1, PI3Kα (Homo sapiens, UniProt P42336); assay: In-vitro enzyme assay (Kinase-Glo luminescent kinase assay), PI3Kα; type: biochemical; conditions: enzyme 2.29 μg/mL, ATP 10 μM, PIP2 60 μM, 2 hours; read-out: inhibitory activity (IC50) against PI3Kα
# T1 construct: purchased Proteros, Germany
# T1 sequence (P42336 whole entry, species assumed): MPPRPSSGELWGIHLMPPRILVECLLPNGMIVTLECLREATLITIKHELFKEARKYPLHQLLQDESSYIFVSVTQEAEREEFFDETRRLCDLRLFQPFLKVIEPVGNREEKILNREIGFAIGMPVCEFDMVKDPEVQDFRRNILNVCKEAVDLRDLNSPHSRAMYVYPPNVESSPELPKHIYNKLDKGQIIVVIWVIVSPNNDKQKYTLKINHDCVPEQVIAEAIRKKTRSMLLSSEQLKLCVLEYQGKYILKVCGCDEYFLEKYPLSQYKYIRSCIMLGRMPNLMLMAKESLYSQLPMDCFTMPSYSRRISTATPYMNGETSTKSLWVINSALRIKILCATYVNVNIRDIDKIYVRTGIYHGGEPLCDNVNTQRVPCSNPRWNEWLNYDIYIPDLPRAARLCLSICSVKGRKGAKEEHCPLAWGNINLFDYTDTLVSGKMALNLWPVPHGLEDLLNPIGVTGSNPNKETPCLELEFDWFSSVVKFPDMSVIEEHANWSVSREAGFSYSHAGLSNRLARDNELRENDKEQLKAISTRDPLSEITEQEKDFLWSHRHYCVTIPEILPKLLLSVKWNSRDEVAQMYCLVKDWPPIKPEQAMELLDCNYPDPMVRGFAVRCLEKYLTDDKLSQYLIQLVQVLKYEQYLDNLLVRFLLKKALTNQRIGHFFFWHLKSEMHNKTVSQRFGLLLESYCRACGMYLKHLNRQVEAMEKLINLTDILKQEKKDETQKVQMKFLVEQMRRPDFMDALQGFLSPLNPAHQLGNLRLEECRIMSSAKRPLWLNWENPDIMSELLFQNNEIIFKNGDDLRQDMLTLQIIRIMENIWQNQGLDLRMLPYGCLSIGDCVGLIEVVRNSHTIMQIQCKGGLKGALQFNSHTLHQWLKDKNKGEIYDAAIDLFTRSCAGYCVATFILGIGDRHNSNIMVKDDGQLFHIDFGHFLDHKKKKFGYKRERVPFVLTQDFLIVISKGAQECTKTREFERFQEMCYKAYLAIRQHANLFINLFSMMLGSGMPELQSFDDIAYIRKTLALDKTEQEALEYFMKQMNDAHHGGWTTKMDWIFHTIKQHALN
# T1 sequence (P27986 whole entry partner, species assumed): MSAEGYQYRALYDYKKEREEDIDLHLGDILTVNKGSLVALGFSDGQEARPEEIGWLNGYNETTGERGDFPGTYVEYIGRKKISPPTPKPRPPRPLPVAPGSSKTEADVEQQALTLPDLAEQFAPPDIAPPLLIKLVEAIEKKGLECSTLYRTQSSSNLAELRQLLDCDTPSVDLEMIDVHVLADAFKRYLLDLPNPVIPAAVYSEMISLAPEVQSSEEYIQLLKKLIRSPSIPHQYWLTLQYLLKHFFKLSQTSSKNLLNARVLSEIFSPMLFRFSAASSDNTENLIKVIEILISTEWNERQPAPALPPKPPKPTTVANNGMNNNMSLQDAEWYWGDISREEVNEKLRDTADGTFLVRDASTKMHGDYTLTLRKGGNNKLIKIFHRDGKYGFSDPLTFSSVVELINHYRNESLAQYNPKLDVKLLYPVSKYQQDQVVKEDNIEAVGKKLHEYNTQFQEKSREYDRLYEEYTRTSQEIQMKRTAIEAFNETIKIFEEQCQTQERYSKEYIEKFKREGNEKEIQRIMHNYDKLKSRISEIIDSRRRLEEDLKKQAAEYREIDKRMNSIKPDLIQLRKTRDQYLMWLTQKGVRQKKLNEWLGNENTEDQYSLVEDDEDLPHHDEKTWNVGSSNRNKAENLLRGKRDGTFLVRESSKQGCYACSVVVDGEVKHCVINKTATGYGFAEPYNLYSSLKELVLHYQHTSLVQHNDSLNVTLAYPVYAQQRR
# Description: (§1) A Kinase-Glo luminescent kinase assay kit (manufactured by Promega) was used for measuring kinase activity. In this assay, the amount of ATP remaining in a solution after a kinase reaction was measured. To confirm the effect of a compound on PI3Kδ inhibition, 2.29 μg/ml recombinant PI3Kδ enzyme (Proteros, Germany) was added to a reaction mixture containing 10 mM MgCl2, 5 mM DTT, 60 μM phosphatidylinositol diphosphate (PIP2) and an assay buffer (containing 50 mM HEPES, pH7.4, 50 mM NaCl, 0.05% CHAPS) supplemented with 10 μM ATP in a final volume of 15 μl/well, in the presence and absence of compound (I), in a 384-well plate. The reaction mixture was incubated at room temperature for 2 hours. At the end of the incubation period, the same volume of Kinase-Glo plus (Promega, V3772) was added per well. After the reaction mixture was incubated at room temperature for 10 minutes in a dark place, emission was measured. The results were calculated by measuring the emission unit of the test sample relative to a blank containing no enzyme.
# (§2) Using specific recombinant enzymes (Proteros, Germany) PI3Kα, PI3Kβ and PI3Kγ, inhibitory activities of compound (I) against each of the kinases were examined. The assay conditions of kinases (PI3Kα, PI3Kβ, PI3Kγ and PI3Kδ) were as follows.
# [2] = Oral bioavailability (BA) in mice; type: in vivo; conditions: plasma; male Swiss mouse, 10.0 mg/kg oral vs 3.0 mg/kg intravenous
# Description: Oral Bioavailability (BA) in Mice
# (§3) To a male Swiss mouse (23±3 g), the compound (I) was intravenously administered as a solution containing the compound (I) (0.3 mg/mL) in a vehicle containing polysorbate and dextrose (pH5.0) or orally as a suspension of the compound (I) (1.0 mg/mL) in methyl cellulose. The final dosage in the case of intravenous administration was 3.0 mg/body weight (1 kg) or that in the case of oral administration was 10.0 mg/body weight (1 kg). A plasma sample was analyzed for the compound (I) by the LC-MS/MS method. Pharmacokinetic parameters were estimated by moment analysis. WinNonlin software 6.1 (Pharsight) was used for estimating the PK parameters. Oral bioavailability was calculated based on dose-normalized oral exposure and intravenous plasma exposure amounts.
# [3] = test system: Ovalbumin-induced airway eosinophilia; assay: Ovalbumin-induced airway eosinophilia model in Brown Norway rat; type: in vivo; conditions: Eosinophil; bid, oral gavage, male Brown Norway rat, 48 hours after ovalbumin challenge; read-out: ED50 value (eosinophils in bronchoalveolar lavage fluid)
# Description: Ovalbumin-Induced Airway Eosinophilia Model in Brown Norway Rat
# The protocol used herein was described in Clin. Exp. Immunol., 2001; 126: 9 to 15 pages and J. Pharmacol. Exp. Ther., 2011; 337: 145 to 54 pages.
# A male Brown Norway rat was sensitized by intraperitoneally injecting a suspension (in 0.9% physiological saline sterilized) of ovalbumin (1 mg) and aluminum hydroxide (100 mg) on Day 0 and Day 7. On Day 14, the compound (I) was administered to the rat by oral gavage. One hour after the oral administration, the animal was housed in a Perspex chamber and exposed to 5% ovalbumin aerosol for 10 minutes. The compound (I) was administered once or twice a day on Day 14 and Day 15. Forty eight hours after ovalbumin challenge, the animal was euthanized and bronchoalveolar lavage fluid was collected. The cell suspension was treated, and the absolute number of eosinophils were counted.
# [4] = Oral bioavailability (BA) in rats; type: in vivo; conditions: plasma; female Wistar rat, 10.0 mg/kg oral vs 3.0 mg/kg intravenous
# Description: Oral Bioavailability (BA) in Rats
# as §3, with “female Wistar rat (210±10” for “male Swiss mouse (23±3”, “(2.0” for “(0.3”
# [5] = test system: HDM-induced chronic asthma (eosinophils in bronchoalveolar lavage fluid); assay: House dust mite (HDM)-induced chronic asthma model of Balb/c mouse; type: in vivo; conditions: Eosinophil; bid, oral, third to fifth week, female Balb/c mouse, 48 hours after final HDM exposure
# Description: House Dust Mite (HDM)-Induced Chronic Asthma Model of Balb/c Mouse
# The protocol used herein was described in Am. J. Respir. Crit. Care Med., 2004; 169: 378 to 385 pages.
# A female Balb/c mouse was intranasally exposed to a purified HDM (Dermatophagoides pteronyssinus) extract at maximum for 5 successive weeks at a frequency of 5 days/week (protein (25 μg) in physiological saline (20 μl)). The compound (I) was orally administered twice a day from the third week to fifth week. Forty eight hours after the final HDM exposure, the animal was euthanized and bronchoalveolar lavage fluid was collected. The cell suspension was treated, and the absolute number of eosinophils were counted.
# [6] = target: T2, PI3Kγ (Homo sapiens, UniProt P48736); assay: In-vitro enzyme assay (Kinase-Glo luminescent kinase assay), PI3Kγ; type: biochemical; conditions: enzyme 2.29 μg/mL, ATP 10 μM, PIP2 60 μM, 2 hours; read-out: inhibitory activity (IC50) against PI3Kγ
# T2 construct: purchased Proteros, Germany
# T2 sequence (P48736 whole entry, species assumed): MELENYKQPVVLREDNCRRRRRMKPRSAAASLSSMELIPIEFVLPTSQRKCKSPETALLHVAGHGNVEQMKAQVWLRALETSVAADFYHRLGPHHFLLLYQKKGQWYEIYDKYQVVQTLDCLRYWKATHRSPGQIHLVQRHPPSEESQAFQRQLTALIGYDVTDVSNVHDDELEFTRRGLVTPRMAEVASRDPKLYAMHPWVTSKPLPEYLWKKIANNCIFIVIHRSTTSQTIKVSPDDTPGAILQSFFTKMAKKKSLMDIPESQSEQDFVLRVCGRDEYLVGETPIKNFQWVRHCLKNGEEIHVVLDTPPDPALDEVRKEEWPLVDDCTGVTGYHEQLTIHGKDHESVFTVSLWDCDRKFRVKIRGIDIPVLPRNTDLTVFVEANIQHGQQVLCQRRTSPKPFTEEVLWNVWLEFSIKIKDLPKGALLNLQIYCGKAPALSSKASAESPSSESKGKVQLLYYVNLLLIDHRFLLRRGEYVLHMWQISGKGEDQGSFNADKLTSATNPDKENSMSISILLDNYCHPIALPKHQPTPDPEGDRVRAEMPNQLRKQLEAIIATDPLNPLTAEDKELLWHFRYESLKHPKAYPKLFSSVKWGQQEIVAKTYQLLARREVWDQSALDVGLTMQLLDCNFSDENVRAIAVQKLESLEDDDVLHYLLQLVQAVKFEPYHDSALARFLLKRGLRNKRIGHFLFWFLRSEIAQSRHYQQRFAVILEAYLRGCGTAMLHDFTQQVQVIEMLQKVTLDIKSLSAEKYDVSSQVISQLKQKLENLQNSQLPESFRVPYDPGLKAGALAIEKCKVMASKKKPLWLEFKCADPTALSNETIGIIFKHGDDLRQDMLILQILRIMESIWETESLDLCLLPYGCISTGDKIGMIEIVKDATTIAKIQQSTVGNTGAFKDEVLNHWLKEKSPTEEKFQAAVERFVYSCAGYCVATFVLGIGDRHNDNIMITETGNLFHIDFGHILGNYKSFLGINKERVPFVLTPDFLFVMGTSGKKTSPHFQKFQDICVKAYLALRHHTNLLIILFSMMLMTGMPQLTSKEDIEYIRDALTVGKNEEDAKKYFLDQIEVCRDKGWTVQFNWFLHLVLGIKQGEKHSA
# Description: as §1, §2
# [7] = Method for examining solubility (JP1, JP2); type: physicochemical; conditions: pH 1.2, simulated gastric fluid, thermodynamic from solid; Solution 1 (JP1) according to the Japanese Pharmacopoeia, room temperature
# Description: Method for Examining Solubility
# A 10 mmol/L solution of the compound (I) in DMSO was prepared. The 10 mmol/L DMSO stock solution (100 μL) was dispensed to two labelled glass tubes: one for Solution 1 (JP1) according to the Japanese Pharmacopoeia and the other for Solution 2 (JP2) according to the Japanese Pharmacopoeia. DMSO was allowed to evaporate from each of the glass tubes, JP1 and JP2 solutions (500 μL) were added in the corresponding glass tubes. These glass tubes were ultrasonically treated for one minute and placed on a shaker for 30 minutes every 5 minutes at the intervals of 30 seconds. The glass tubes were placed in a dark place at room temperature for one hour and the solutions were filtered through a membrane filter. The filtrates were diluted 2 and 10 fold. The resultant test solutions were analyzed and quantified with UPLC (standard product: a 10 mmol/L solution in DMSO was serially diluted with a 50% aqueous acetonitrile solution to prepare two solutions: a 100 μmol/L standard solution and a 5 μmol/L standard solution) relative to the standard.
# [8] = test system: mitogen-induced IFN-γ release in mouse splenocytes; assay: Phytohaemagglutinin (PHA) inducible interferon (IFN)-gamma release in mouse splenocytes; type: cell-based; conditions: Splenocyte; C57BL/6 mouse splenocytes, PHA 10 μg/ml, 48 hours, ELISA; read-out: activity (IC50), inhibition of IFN-γ release
# Description: Phytohaemagglutinin (PHA) Inducible Interferon (IFN)-Gamma Release in Mouse Splenocytes
# In a cell based assay system, the effect of a compound on mitogen-induced IFN-γ release in mouse splenocytes was evaluated [Blood (2010) 115: 2203 to 2213 pages; Current Protocols in Immunology (2004) 3.12.1 to 3.12.20].
# Mouse splenocytes were obtained from the spleen of a C57BL/6 mouse and seeded in a 96-well tissue culture plate at a density of 250,000 cells/well. The splenocytes were treated with the compound (I), and thereafter, stimulated with PHA (10 μg/ml) for 48 hours. In this manner, an effect of compound (I) on inhibition of IFN-γ release was evaluated. The IFN-γ release in the cell culture supernatant was quantified by ELISA in accordance with the manufacturer's protocol (BD Biosciences, #555138).
# [9] = target: T3, PI3Kβ (Homo sapiens, UniProt P42338); assay: In-vitro enzyme assay (Kinase-Glo luminescent kinase assay), PI3Kβ; type: biochemical; conditions: enzyme 2.29 μg/mL, ATP 10 μM, PIP2 60 μM, 2 hours; read-out: inhibitory activity (IC50) against PI3Kβ
# T3 construct: purchased Proteros, Germany
# T3 sequence (P42338 whole entry, species assumed): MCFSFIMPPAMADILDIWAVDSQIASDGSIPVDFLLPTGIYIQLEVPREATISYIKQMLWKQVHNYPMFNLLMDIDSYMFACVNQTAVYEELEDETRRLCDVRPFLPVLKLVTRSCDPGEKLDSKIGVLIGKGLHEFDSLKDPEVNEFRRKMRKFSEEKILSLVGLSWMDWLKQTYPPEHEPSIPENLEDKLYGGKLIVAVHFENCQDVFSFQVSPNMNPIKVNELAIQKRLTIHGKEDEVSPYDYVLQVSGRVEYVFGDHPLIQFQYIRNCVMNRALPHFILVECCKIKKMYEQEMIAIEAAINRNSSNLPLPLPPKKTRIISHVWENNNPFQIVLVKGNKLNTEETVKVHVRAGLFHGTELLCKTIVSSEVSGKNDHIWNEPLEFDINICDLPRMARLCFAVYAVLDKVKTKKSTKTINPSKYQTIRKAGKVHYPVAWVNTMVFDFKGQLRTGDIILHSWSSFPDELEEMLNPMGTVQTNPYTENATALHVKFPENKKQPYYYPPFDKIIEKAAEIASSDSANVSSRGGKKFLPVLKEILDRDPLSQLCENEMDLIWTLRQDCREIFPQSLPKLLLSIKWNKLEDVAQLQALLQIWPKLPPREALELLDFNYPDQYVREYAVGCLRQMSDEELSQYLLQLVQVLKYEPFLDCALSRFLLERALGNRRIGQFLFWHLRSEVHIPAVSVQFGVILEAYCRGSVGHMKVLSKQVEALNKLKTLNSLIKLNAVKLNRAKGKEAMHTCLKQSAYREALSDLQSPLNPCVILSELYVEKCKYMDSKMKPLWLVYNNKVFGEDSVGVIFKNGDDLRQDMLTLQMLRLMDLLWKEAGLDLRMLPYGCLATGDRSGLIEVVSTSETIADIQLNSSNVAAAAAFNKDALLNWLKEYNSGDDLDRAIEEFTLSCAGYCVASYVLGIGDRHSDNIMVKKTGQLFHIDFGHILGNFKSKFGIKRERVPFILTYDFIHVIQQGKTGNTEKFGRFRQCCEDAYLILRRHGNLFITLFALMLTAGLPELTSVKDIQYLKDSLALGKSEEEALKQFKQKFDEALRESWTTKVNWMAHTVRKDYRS
# T3 sequence (P27986 whole entry partner, species assumed): as the sequence (P27986 whole entry partner, species assumed) above
# Description: as §1, §2
structure (smiles),measurement,setting,value
"Cn1cc(-c2nc(N3CCOCC3)c3nc(C(=O)N4CCC(N5CCOCC5)CC4)[nH]c3n2)cn1 [compound (I), [2-(1-methyl-1H-pyrazol-4-yl)-6-(morpholin-4-yl)-9H-purin-8-yl][4-(morpholin-4-yl)piperidin-1-yl]methanone]",IC50,[1],≥ 1000 nM
same,bioavailability,[2],100%
same,ED50,[3],0.3 mg/kg
same,bioavailability,[4],88%
same,ED50,[5],0.1 mg/kg
same,IC50,[6],≥ 1000 nM
same,solubility at 30 min,[7],≥ 1200 µg/mL
same,IC50,[8],6 nM
same,IC50,[9],≥ 10 µM
